Source: patent US20260000794A1, “IN VIVO TRANSITION METAL DETECTION” (The University of Sydney, priority 2022, published 2026)
“Also recorded” adds a separate entry of the source.

Experiments:
SWISS mice = assay: DIVE microscopy of fluorescent emission in CuATSM-treated vs untreated mice after F—NpCul injection (FIG. 5, FIG. 6); format: in vivo, mouse; conditions: 4 mg/kg F—NpCul i.v. tail vein, CuATSM 15 mg/kg orally daily for eight days
Method: (§1) In this work, anaesthetised SWISS mice underwent a craniotomy surgery to expose a region of parietal cortex. Imaging was performed through this cranial window with a water dipping objective lens. 4 mg/kg F—NpCul was i.v. injected through the tail vein after three minutes. F—NpCul was excited at 920 nm and emission was 504-577nm. “Treated” mice (n=3) were orally administered the copper-delivery compound CuATSM (15 mg/kg) daily for eight days to increase brain copper levels prior to imaging while control mice (n=3, “Untreated”) received no treatment. For each mouse at all time points, fluorescent emission per unit area (arbitrary units) from five representative regions of interest (ROIs) within vasculature and five ROIs in surrounding tissue was quantified from a projected image combining 130 μm depth. Baseline fluorescence from an image acquired prior to probe injection was subtracted from all fluorescent measurements which were then averaged at each time point. Comparison of average fluorescent emission intensity between control and CuATSM-treated mice was undertaken for a) brain tissue and b) vasculature. Unpaired t-tests with significance p<0.05 were performed to describe the temporal pattern of change. Error bars show mean ±SEM.
(§2) Anaesthetised SWISS mice underwent a craniotomy surgery to create a cranial window exposing parietal cortex. […]

mice = assay: Observation of signs of toxicity in the in vivo studies; parameters: species or system mouse; conditions: in vivo imaging studies, 4 mg/kg F—NpCul
Method: as §1, §2

SH-SY5Y cells = assay: Confocal microscopy of F—NpCul fluorescence in cells with copper loading or depletion (FIG. 4); format: cell-based, human
Method: SH-SY5Y cells were used, which are a human neuron-like cell line. SH-SY5Y cells were maintained at 37° C. in 5% CO2. Cells were cultured in Dulbecco's Modified Eagle's Medium (DMEM, Thermo Fisher Scientific) supplemented with 10% foetal calf serum (FCS, Thermo Fisher Scientific) and 2.5 mM L-glutamine (Sigma-Aldrich). Fluorobrite DMEM (FDMEM, Thermo Fisher Scientific) was supplemented with 10% FCS and 2.5 mM L-glutamine, unless otherwise stated.
For all imaging experiments, 1.5×10^5 cells were seeded into 35 mm glass bottom dishes (MatTek) and allowed to adhere overnight. 10 mM stock solutions of F—NpCul CuATSM were freshly prepared in DMSO. A 10 mM stock solution of BCS was freshly prepared in MilliQ water. For experiments cells were dosed with nothing (vehicle), 1 μL of 10 mM CuATSM stock in 1 mL DMEM or 10 μL of 10 mM BCS solution in 1 mL DMEM. […]
Images were obtained at 37° C. in a 5% CO2 atmosphere on an Olympus Fluo View FV3000 Confocal Laser Scanning Microscope, equipped with an Olympus 60× water objective (UPLSAPO60XW) and 405 and 640 nm lasers, unless otherwise stated. All samples were excited at 405 nm, and fluorescence emission collected from 510-610 nm. […] Data is presented as the mean fluorescence intensities of 40-50 cell clusters chosen as regions of interest from 10 images representative of each condition.

CCSCCN(CCSCC)Cc1cn(C(=O)OCCOCCNc2ccc3c4c(cccc24)C(=O)N(CCF)C3=O)cn1 [F—NpCul]
reported copper levels within the vasculature, treated vs untreated mice (SWISS mice): equivalent
fluorescent signal in brain tissue, CuATSM-treated vs untreated mice (SWISS mice; parietal cortex, excitation 920 nm, emission 504-577 nm): significantly higher; also recorded: Higher fluorescent signal is observed in CuATSM-treated mice compared to control
signs of toxicity following F—NpCul exposure (mice): no signs of toxicity
mean fluorescence intensity response to copper status (SH-SY5Y cells; 10 μM F—NpCul, cells treated with vehicle, 10 μM CuATSM (copper-loading) or 100 μM BCS (copper-depleting) for 1 h, P<0.001 v vehicle): sensitive to both an accumulation and a deficiency of copper
bioavailability and cell uptake, reporting intracellular Cu(I) levels (SH-SY5Y cells; preliminary results): bioavailable and can be taken up by cells to report intracellular Cu(I) levels
